This is an account of results in patent publication US20230203059A1, “MACROCYCLIC JAK INHIBITOR AND USES THEREOF” (Biopolar Hongye (Guangdong) Pharmaceutical Co. Ltd., priority 2020, published 2023).

Type in all cases: biochemical
For one test, the target named is JAK1 (Homo sapiens, UniProt P23458). The test is described as follows: JAK kinase activity, homogeneous time-resolved fluorescence (JAK1 reaction system). As to conditions: ATP 2 μM, JAK1 protein 0.2 ng/μL; read-out: JAK 1 activity. The method in brief:
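Kinase activity read as the 665 nm/615 nm time-resolved fluorescence ratio (320 nm excitation) after EDTA-containing antibody and XL-615 addition. Reaction ran 1 h at pH 7.0 (Hepes, MgCl2, DTT) with 0.2 ng/μL JAK1 and ATP at 2 μM. IC50 derived by Hill-slope fit.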

Another test deals with JAK2 (Homo sapiens, UniProt O60674). The experiment in a line: JAK kinase activity, homogeneous time-resolved fluorescence (JAK2 reaction system). As to conditions: ATP 2 μM, JAK2 protein 0.01 ng/μL. The method, boiled down:
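IC50 derived by Hill-equation fit of the 665/615 nm time-resolved fluorescence ratio after EDTA-containing detection mix with anti-phosphosubstrate antibody. Preceding 1 h reaction contained 2 μM ATP, 0.01 ng/μL JAK2, substrate, 50 mM Hepes pH 7.0, 5 mM MgCl2, 1 mM DTT.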

The target in a further test is T1, JAK3 (Homo sapiens, UniProt P52333).
T1 sequence (P52333 1-1124): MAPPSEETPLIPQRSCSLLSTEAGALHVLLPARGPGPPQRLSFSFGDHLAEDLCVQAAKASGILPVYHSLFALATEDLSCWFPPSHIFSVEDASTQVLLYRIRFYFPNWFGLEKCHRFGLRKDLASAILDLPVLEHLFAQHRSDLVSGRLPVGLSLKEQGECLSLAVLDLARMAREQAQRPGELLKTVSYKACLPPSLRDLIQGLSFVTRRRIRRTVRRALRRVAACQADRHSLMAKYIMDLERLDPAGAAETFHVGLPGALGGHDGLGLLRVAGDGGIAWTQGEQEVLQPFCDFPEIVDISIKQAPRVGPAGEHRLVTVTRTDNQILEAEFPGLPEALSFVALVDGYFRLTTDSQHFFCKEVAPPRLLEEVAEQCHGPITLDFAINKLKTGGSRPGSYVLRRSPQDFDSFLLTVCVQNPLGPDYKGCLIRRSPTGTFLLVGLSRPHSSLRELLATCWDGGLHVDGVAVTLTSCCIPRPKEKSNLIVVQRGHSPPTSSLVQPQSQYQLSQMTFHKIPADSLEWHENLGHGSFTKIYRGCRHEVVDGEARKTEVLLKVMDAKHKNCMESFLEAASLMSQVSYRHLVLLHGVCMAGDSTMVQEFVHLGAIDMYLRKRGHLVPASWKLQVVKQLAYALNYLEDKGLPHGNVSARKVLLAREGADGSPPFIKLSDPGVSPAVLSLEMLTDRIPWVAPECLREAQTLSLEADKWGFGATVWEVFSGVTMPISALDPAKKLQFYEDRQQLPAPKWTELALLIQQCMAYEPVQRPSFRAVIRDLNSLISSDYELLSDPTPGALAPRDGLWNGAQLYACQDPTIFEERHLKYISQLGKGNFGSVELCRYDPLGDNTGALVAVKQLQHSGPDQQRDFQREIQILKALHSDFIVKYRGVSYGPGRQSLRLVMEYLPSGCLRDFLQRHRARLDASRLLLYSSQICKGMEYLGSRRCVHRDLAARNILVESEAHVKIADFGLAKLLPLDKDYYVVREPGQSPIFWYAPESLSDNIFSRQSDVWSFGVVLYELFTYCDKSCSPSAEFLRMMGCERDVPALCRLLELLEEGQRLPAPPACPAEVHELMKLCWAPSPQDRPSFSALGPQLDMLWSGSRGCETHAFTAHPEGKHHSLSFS
The experiment in a line: JAK kinase activity, homogeneous time-resolved fluorescence (JAK3 reaction system). The settings on record: ATP 2 μM, JAK3 protein 0.04 ng/μL; read-out: JAK 3 activity.

The next test deals with TYK2 (Homo sapiens, UniProt P29597). The test is described as follows: JAK kinase activity, homogeneous time-resolved fluorescence (TYK2 reaction system). The settings on record: ATP 2 μM, TYK2 protein 0.2 ng/μL; read-out: TYK 2 activity. The method in brief:
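Activity read as the 665 nm/615 nm ratio after adding EDTA-containing detection mix with anti-phospho-substrate antibody and XL-615. Beforehand, 0.2 ng/μL TYK2, 2 μM ATP, substrate and compound reacted 1 h in pH 7.0 Hepes buffer with MgCl2 and DTT. IC50 fitted with Hill-slope equation.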

Sequence of JAK1 (P23458 whole entry): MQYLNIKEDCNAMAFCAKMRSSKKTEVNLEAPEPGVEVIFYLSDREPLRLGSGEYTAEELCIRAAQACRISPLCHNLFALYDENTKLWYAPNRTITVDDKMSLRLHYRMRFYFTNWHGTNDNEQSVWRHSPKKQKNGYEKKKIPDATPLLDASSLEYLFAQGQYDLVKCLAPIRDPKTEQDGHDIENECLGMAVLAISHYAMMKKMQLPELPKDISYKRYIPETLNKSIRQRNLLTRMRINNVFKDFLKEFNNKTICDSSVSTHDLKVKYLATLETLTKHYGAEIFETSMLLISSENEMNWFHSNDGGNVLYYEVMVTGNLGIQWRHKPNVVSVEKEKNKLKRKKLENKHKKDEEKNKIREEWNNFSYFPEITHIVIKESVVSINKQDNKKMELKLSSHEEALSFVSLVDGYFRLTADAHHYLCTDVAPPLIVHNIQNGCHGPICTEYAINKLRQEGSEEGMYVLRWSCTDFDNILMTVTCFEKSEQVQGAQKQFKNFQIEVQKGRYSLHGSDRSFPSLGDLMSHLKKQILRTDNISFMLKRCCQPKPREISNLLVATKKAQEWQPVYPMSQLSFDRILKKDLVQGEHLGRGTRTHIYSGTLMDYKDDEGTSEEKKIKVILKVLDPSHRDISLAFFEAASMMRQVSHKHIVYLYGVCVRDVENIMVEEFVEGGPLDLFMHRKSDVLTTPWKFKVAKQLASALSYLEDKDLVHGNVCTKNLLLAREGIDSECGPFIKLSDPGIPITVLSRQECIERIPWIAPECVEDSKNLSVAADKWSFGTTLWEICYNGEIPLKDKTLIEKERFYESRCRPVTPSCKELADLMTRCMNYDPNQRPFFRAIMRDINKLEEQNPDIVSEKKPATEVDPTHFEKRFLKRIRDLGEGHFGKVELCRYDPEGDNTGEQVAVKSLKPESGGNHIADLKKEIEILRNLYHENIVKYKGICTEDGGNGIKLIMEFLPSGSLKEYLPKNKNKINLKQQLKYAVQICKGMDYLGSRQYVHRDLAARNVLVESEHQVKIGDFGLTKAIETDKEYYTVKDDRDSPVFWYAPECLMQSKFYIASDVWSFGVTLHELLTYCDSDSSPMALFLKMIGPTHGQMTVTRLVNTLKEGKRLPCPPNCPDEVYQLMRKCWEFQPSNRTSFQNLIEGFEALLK
Sequence of TYK2 (P29597 whole entry): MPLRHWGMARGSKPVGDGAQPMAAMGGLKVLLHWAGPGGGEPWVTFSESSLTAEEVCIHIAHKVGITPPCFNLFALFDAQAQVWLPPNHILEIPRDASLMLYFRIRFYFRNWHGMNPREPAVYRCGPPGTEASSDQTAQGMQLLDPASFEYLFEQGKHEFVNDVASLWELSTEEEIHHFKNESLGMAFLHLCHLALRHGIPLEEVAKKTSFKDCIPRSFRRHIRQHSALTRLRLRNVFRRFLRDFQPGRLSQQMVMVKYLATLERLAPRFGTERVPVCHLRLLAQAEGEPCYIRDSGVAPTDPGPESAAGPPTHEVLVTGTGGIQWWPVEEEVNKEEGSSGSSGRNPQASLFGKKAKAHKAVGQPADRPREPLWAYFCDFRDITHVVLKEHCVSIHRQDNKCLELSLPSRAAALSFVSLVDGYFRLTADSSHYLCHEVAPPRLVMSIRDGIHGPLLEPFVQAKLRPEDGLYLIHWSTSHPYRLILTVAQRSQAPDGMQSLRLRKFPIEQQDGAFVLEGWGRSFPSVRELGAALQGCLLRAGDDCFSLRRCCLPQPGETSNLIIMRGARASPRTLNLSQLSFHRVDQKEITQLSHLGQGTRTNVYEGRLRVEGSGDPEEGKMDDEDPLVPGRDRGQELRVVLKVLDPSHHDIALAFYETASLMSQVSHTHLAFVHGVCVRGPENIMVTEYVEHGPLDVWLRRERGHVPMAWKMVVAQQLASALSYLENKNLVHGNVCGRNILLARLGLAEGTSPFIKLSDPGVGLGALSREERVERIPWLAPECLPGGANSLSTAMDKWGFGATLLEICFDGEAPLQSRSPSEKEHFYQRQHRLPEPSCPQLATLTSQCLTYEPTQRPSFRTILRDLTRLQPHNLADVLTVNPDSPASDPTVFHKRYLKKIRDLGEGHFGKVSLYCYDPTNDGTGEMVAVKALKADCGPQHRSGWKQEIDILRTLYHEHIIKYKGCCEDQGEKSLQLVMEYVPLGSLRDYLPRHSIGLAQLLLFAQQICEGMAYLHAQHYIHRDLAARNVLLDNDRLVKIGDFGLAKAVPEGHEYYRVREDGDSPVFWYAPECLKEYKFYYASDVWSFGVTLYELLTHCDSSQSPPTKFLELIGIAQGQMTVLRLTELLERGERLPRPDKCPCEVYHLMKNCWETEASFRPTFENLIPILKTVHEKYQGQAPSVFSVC
Sequence of JAK2 (O60674 whole entry): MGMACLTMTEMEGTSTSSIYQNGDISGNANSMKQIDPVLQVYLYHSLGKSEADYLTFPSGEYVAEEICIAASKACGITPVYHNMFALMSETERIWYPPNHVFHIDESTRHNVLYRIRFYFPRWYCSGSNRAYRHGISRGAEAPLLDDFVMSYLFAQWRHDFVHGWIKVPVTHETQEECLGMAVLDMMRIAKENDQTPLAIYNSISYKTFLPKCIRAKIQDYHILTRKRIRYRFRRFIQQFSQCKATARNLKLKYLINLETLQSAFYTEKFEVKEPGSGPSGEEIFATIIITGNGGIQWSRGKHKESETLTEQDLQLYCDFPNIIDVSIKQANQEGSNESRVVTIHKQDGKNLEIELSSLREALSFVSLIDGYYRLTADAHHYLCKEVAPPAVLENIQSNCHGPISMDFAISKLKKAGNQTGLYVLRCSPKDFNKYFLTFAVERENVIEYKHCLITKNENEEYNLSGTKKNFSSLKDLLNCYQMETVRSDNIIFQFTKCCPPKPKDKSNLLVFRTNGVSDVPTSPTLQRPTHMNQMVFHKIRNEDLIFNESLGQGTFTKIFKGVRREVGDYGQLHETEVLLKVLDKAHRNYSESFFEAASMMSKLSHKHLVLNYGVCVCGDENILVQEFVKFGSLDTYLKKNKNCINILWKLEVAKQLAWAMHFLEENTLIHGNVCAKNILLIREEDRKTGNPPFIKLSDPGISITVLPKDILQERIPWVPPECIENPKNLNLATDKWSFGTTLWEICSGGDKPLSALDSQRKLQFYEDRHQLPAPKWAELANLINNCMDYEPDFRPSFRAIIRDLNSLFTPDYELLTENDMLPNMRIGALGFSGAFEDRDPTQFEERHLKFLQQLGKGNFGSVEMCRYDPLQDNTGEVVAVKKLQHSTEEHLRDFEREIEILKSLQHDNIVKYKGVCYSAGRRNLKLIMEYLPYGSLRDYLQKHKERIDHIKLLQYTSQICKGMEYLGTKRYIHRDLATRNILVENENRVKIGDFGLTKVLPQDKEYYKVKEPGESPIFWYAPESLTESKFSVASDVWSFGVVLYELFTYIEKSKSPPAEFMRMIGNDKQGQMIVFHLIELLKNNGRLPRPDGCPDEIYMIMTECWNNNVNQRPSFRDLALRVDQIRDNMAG

In the case of `COc1cc(F)cc(F)c1COc1ccc2cc1COCC[C@H](C)CNC(=O)c1ccc(c(N)c1)-c1ccnc(n1)N2` [Example 191, (S)-1^2-amino-4^4-((2,4-difluoro-6-methoxybenzyl)oxy)-9-methyl-6-x-xa-3,11-diaza-2(4,2)-pyrimidina-1(1,4),4(1,3)-dibenzenacyclo-dodecaphan-12-one], the IC50 on JAK1 lay in the range of 1 to 10 µM; on JAK2, 1 to 10 µM; on JAK3 it was 0.101 to 1 µM; on TYK2 it was 1 to 10 µM.
With `COc1cccc(F)c1COc1ccc2cc1COCC[C@H](C)CNC(=O)c1ccc(c(N)c1)-c1ccnc(n1)N2` [Example 192, (S)-1^2-amino-4^4-((2-fluoro-6-meth-oxybenzyl)oxy)-9-methyl-6-oxa-3,11-diaza-2(4,2)-pyrimidina-1(1,4),4(1,3)-dibenzenacyclo-dodecaphan-12-one], the IC50 on JAK1 was 1 to 10 µM; against JAK2, 1 to 10 µM; at JAK3 it was 0.101 to 1 µM; at TYK2, > 10 µM.
Turning to `COc1cc(Cl)cc(F)c1COc1ccc2cc1COCCCCNC(=O)c1ccc(c(N)c1)-c1ccnc(n1)N2` [Example 193, 1^2-amino-4^4-((4-chloro-2-fluoro-6-methoxybenzyl)oxy)-6-oxa-3,11-diaza-2(4,2)-pyrimidina-1(1,4),4(1,3)-dibenzenacyclododecaphan-12-one], the IC50 lay within 1 to 10 µM on JAK1, 1 to 10 µM on JAK2, 0.011 to 0.1 µM at JAK3 and 1 to 10 µM on TYK2.
Take `COc1cc(F)cc(C#N)c1COc1ccc2cc1COCCCCNC(=O)c1ccc(c(N)c1)-c1ccnc(n1)N2` [Example 194, 2-(((1^2-amino-12-oxo-6-oxo-3,11-diaza-2(4,2)-pyrimidina-1(1,4),4(1,3)-dibenzenacyclododecaphan-4^4-yl)oxy)methyl)-5-fluoro-3-methoxy-benzonitrile]: the IC50 was 1 to 10 µM at JAK1, 0.101 to 1 µM at JAK2, 0.011 to 0.1 µM on JAK3 and > 10 µM at TYK2.
`COc1cc(F)cc(Cl)c1COc1ccc2cc1COCCCCNC(=O)c1ccc(c(N)c1)-c1ccnc(n1)N2` [Example 195, 1^2-amino-4^4-((2-chloro-4-fluoro-6-methoxybenzyl)oxy)-6-oxa-3,11-diaza-2(4,2)-pyrimidina-1(1,4),4(1,3)-dibenzenacyclododecaphan-12-one]: the IC50 on JAK1 fell in the range of 1 to 10 µM; on JAK2 it was 1 to 10 µM; on JAK3, 0.011 to 0.1 µM; on TYK2 it was 1 to 10 µM.
`COc1cc(C#N)cc(F)c1COc1ccc2cc1COCCCCNC(=O)c1ccc(c(N)c1)-c1ccnc(n1)N2` [Example 196, 4-(((1^2-amino-12-oxo-6-oxa-3,11-diaza-2(4,2)-pyrimidina-1(1,4),4(1,3)-dibenzenacyclododecaphan-4^4-yl)oxy)methyl)-3-fluoro-5-methoxy-benzonitrile]: the IC50 at JAK1 is 1 to 10 µM; against JAK2, 0.101 to 1 µM; at JAK3 it was < 0.01 µM; on TYK2 it was 1 to 10 µM.
Take `Nc1cc2ccc1-c1ccnc(n1)Nc1ccc(OC3CCCOC3)c(c1)COc1ccc(cc1)NC2=O` (stereo not shown) [Example 197, 1^2-amino-4^4-((tetrahydro-2H-pyran-3-yl)oxy)-6-oxa-3-8-diaza-2 (4,2)-pyrimidina-1,7(1,4), 4 (1,3)-tribenzenacyclononaphane-9-one]: the IC50 lay in the range of 1 to 10 µM on JAK1, 0.101 to 1 µM at JAK2, 0.011 to 0.1 µM at JAK3 and 1 to 10 µM at TYK2.
Consider `CC(C)Oc1ccc2cc1COc1ccc(cc1)NC(=O)c1ccc(c(N)c1)-c1ccnc(n1)N2` [Example 198, 1^2-amino-4^4-isopropoxy-6-oxa-3,8-diaza-2(4,2)-pyrimidina-1,7(1,4),4(1,3)-tribenzenacyclononaphane-9-one], for which the IC50 at JAK1 lay within 1 to 10 µM; against JAK2, 0.101 to 1 µM; at JAK3, 0.011 to 0.1 µM; at TYK2, 1 to 10 µM.
Take `Nc1cc2ccc1-c1ccnc(n1)Nc1ccc(OC3CC3)c(c1)COc1ccc(cc1F)NC2=O` [Example 199, 1^2-amino-4^4-cyclopropoxy-7^2-fluoro-6-oxa-3,8-diaza-2(4,2)-pyrimidina-1,7(1,4),4(1,3)-tribenzenacyclonona-phane-9-one]: the IC50 was 0.101 to 1 µM at JAK1, 1 to 10 µM against JAK2, 0.011 to 0.1 µM at JAK3 and 1 to 10 µM on TYK2.
On to `Nc1cc2ccc1-c1ccnc(n1)Nc1ccc(OC3CC3)c(c1)COc1ccc(cc1)NC2=O` [Example 200, 1^2-amino-4^4-cyclopropoxy-6-oxa-3,8-diaza-2(4,2)-pyrimidina-1,7(1,4),4(1,3)-tribenzenacyclononanphane-9-one], for which the IC50 is 1 to 10 µM at JAK1, 0.101 to 1 µM on JAK2, 0.011 to 0.1 µM on JAK3 and > 10 µM on TYK2.
`CC(C)COc1ccc2cc1COc1ccc(cc1)NC(=O)c1ccc(c([N+](=O)[O-])c1)-c1ccnc(n1)N2` [Example 201, 4^4-isobutoxy-1^2-nitro-6-oxa-3,8-dia-za-2(4,2)-pyrimidina-1,7(1,4),4(1,3)-tribenzenacyclononaphane-9-one]: the IC50 at JAK1 was > 10 µM; on JAK2, > 10 µM; at JAK3 it was 1 to 10 µM; on TYK2, > 10 µM.
`CC(C)COc1ccc2cc1COc1ccc(cc1)NC(=O)c1ccc(c(N)c1)-c1ccnc(n1)N2` [Example 202, 1^2-amino-4^4-isobutoxy-6-oxa-3,8-di-aza-2(4,2)-pyrimidina-1,7(1,4),4(1,3)-tribenzenacyclononaphane-9-one]: the IC50 on JAK1 was 1 to 10 µM; against JAK2 it was 1 to 10 µM; on JAK3, 0.011 to 0.1 µM; at TYK2, > 10 µM.
On to `O=C1Nc2ccc(cc2)OCc2cc(ccc2OC2CCCOC2)Nc2nccc(n2)-c2ccc1cc2[N+](=O)[O-]` (stereo not shown) [Example 203, 1^2-nitro-4^4-((tetrahydro-2H-pyran-3-yl)oxy)-6-oxa-3,8-diaza-2(4,2)-pyri-midina-1,7(1,4),4(1,3)-tribenzenacyclo-nonaphane-9-one], for which the IC50 at JAK1 was 1 to 10 µM; at JAK2 it was 1 to 10 µM; at JAK3, 0.101 to 1 µM; at TYK2 it was > 10 µM.
With `O=C1Nc2ccc(cc2)OCc2cc(ccc2Oc2cccnc2)Nc2nccc(n2)-c2ccc1cc2[N+](=O)[O-]` [Example 204, 1-nitro-4^4-(pyridin-3-oxy)-6-oxa-3,8-diaza-2(4,2)-pyrimidina-1,7(1,4),4(1,3)-tribenzenacyclononaphen-9-one], the IC50 on JAK1 is 1 to 10 µM; at JAK2 it was > 10 µM; on JAK3, 1 to 10 µM; on TYK2, > 10 µM.
For the molecule `Nc1cc2ccc1-c1ccnc(n1)Nc1ccc(Oc3cccnc3)c(c1)COc1ccc(cc1)NC2=O` [Example 205, 1^2-amino-4^4-(pyridin-3-oxy)-6-oxa-3,8-diaza-2(4,2)-pyrimidina-1,7(1,4),4(1,3)-tribenzenacyclononaphane-9-one], the IC50 on JAK1 was 1 to 10 µM; on JAK2, 1 to 10 µM; on JAK3 it was 0.011 to 0.1 µM; on TYK2 it was > 10 µM.
As for `O=C1Nc2ccc(cc2)OCc2cc(ccc2OCC2CC2)Nc2nccc(n2)-c2ccc1cc2[N+](=O)[O-]` [Example 206, 4^4-(cyclopropylmethoxy)-1-nitro-6-oxa-3,8-diaza-2(4,2)-pyrimidina-1,7(1,4),4(1,3)-tribenzenacyclo-nonaphane-9-one], the IC50 at JAK1 is 1 to 10 µM; at JAK2, 0.101 to 1 µM; at JAK3, < 0.01 µM; at TYK2 it was > 10 µM.
